Laboratory results published in patent US8153687B2, “Gallium complexes with polyalcohols and methods of use” (priority 2009, dated 2012).

Tested on: Pseudomonas aeruginosa
Assay: Topical treatment of a recalcitrant Pseudomonas aeruginosa infected diabetic foot ulcer (case)
Type: in vivo
Conditions: severe diabetic foot ulcer with biofilm formation

Row | Molecule | response of the infection to treatment (oral treatment) | response of the infection to treatment (topical treatment)
1 | O=C(O)c1cn(C2CC2)c2cc(N3CCNCC3)c(F)cc2c1=O [ciprofloxacin] | does not respond | does not respond
2 | Oc1cc(Cl)ccc1Oc1ccc(Cl)cc1Cl [triclosan] | – | does not respond
3 | gentamicin | – | does not respond
